Several values for one entry are separate records, joined by “and”; a condition that tells them apart may be missing. Equal values may be shown once.
Tests used:
Type in all cases: in vivo, human
[1] = test system: Chinese patients with T2D; assay: Treatment-emergent adverse events (MedDRA SOC/preferred term), 12-week once-weekly s.c. treatment plus 8-week safety follow-up, phase 1b
Procedure: The study included a 3-week screening period, a 12-week treatment period and an 8-week safety follow-up period. During the 12-week treatment period, IBI362 or placebo was subcutaneously administered once weekly with one of the three dose-escalation schedules: 1.0–2.0–3.0 mg for the 3.0 mg cohort, 1.5–3.0–4.5 mg for the 4.5 mg cohort and 2.0–4.0–6.0 mg for the 6.0 mg cohort (each dose level administered for 4 weeks). The 6.0 mg cohort started dosing after tolerability evaluation of 1.5 mg dosing in the 4.5 mg cohort. The internal unblinded safety monitoring group was responsible for the safety monitoring. Dulaglutide was subcutaneously administered once weekly at a fixed dose of 1.5 mg. Patients who were on metformin prior to the enrolment of this trial were required to continue their previous dose of metformin throughout the trial. Investigators and authorized study personnel in each centre recorded the study data into the electronic case report forms (eCRFs), which were reviewed and validated by clinical research associates. The data in the eCRFs were submitted to the electronic data capture database.
(§1) Primary outcomes of the study were the safety and tolerability of IBI362. Safety assessment included adverse events, physical examinations, laboratory tests (including lipase, amylase and calcitonin level measures), vital signs and 12-lead electrocardiogram. Adverse events were categorized according to the Medical Dictionary for Regulatory Activities system organ classes (SOCs) and preferred terms. Treatment-emergent adverse events (TEAEs) were monitored from the time of informed consent to the safety follow-up period. The severity of TEAEs (mild, moderate or severe) and the association between an event and the study drug were assessed by investigators based on pre-specified criteria.
Safety analyses were done in the safety population (defined as all patients who received at least one dose of the study treatment). Pharmacokinetic analyses were done in the pharmacokinetic population (defined as all patients who received at least one dose of IBI362 and had at least one valid plasma concentration assessment).

[2] = test system: Chinese patients with T2D; assay: Alanine aminotransferase and aspartate aminotransferase levels
From the text: as §1
CFB in ALT (U/L), mean (SD)
CFB in AST (U/L), mean (SD)
Fig. S2: Change from baseline in ALT and AST levels over time.
a. CFB in ALT levels over time. b. CFB in AST levels over time. Data are plotted as means +/- SD.
ALT = alanine aminotransferase; AST = aspartate aminotransferase; CFB = change from baseline;
SD = standard deviation. Source data are provided as a Source Data file. […]

[3] = test system: Chinese patients with T2D; assay: Mixed-meal tolerance test (MTT): C peptide
Procedure: HbA1c (2200101, Bio-Rad, USA), blood glucose (05168791190, Roche Diagnostics, Germany), insulin (12017547122, Roche Diagnostics, Germany), C peptide (03184897190, Roche Diagnostics, Germany), total GLP-1 (GLP-1 [7–36] amide and its metabolite, GLP-1 [9–36] amide, 10-1278-01, Mercodia AB, Sweden) and OXM (AL-139, AnshLabs, USA) tests were performed according to the manufactures’ instruction manuals in a central laboratory (KingMed Diagnostics, Guangzhou, China). HbA1c was measured using a Bio-rad D-100 Haemoglobin Testing System (Bio-rad). Blood glucose was measured using a Roche Cobas c702 analyser (Roche Diagnostics). Insulin and C peptide were measured using a Roche […] analyser (Roche Diagnostics). GLP-1 and OXM were measured using a Tecan Infinite M Plex microplate reader (TECAN).
Standard non-compartmental pharmacokinetics methods were used to analyze IBI362 plasma concentration data using Pkanalix 2020R1 (Lixoft, Antony, France). Secondary efficacy outcomes included change from baseline to week 12 in HbA1c, fasting plasma glucose (FPG), fasting insulin levels, change from baseline to week 12 in post-mixed-meal tolerance test (post-MTT) glucose, insulin, C peptide, GLP-1 and OXM levels, as well as seven-point self-measured blood glucose (SMBG) profile.
IBI362 Innovent Biologics (Suzhou) Co., Ltd. CIBI362A101
3. Standard meal test (MTT) collection measures included: insulin, C-peptide, plasma glucose, glucagon, endogenous OXM, and endogenous GLP-1. The sampling points include: fasting, 30 min, 1h, 2h, 3h and 4h.
A total of 9 mL blood will be collected from each blood collection point. See the manual of the central laboratory for the detailed operation process. Fasting state refers to fasting for 10 hours. [ The standard meal is
instant noodles. The master Kang roast beef noodles (bucket noodles) purchased by the sponsor in a unified manner are removed from the oil bag. The noodles are soaked in boiled water and then removed. The seasoning
bag is added and mixed well. The time is counted from the first bite of eating. The noodles are eaten within 10 minutes, and 200 mL of water is drunk; or the instant noodles are directly opened with 200 mL of boiled
water to ensure that the noodles are eaten and the water or soup is drunk]. Visit days when MTT test is performed: 1 day prior to Cycle 1 administration, Day 80 (D80).
4. If the patient experiences drug-related adverse events during dose escalation and meets the protocol-specified tolerance criteria, dose adjustment is required at the investigator's discretion, and a standard meal test
should be performed 48 hours after the first dose after dose adjustment.
● Test by central laboratory

Waist circumference = conditions: for Change from baseline to week 12 in waist circumference, individual: single patients
From the text: (§2) Exploratory outcomes included change from baseline in body weight, waist circumference, body-mass index (BMI) and change in homeostatic model assessment of β-cell function (HOMA-β) and insulin resistance (HOMA-IR).

[4] = test system: Chinese patients with T2D; assay: Homeostatic model assessment of insulin resistance (HOMA-IR); conditions: for Change from baseline to week 12 in HOMA-IR, individual: single patients
From the text: as §2

## CC(C)C[C@H](NC(=O)[C@H](CC(C)C)NC(=O)[C@H](Cc1c[nH]c2ccccc12)NC(=O)[C@H](CCC(=O)O)NC(=O)[C@@H](NC(=O)[C@H](Cc1ccccc1)NC(=O)[C@H](CCC(=O)O)NC(=O)[C@H](CCCCNC(=O)COCCOCCNC(=O)COCCOCCNC(=O)CC[C@H](NC(=O)CCCCCCCCCCCCCCCCCCC(=O)O)C(=O)O)NC(=O)[C@H](C)NC(=O)[C@H](CCCCN)NC(=O)[C@H](CCCCN)NC(=O)[C@H](CCC(=O)O)NC(=O)[C@H](CC(=O)O)NC(=O)[C@H](CC(C)C)NC(=O)[C@H](Cc1ccc(O)cc1)NC(=O)[C@H](CCCCN)NC(=O)[C@H](CO)NC(=O)[C@H](Cc1ccc(O)cc1)NC(=O)[C@H](CC(=O)O)NC(=O)[C@H](CO)NC(=O)[C@@H](NC(=O)[C@H](Cc1ccccc1)NC(=O)[C@@H](NC(=O)CNC(=O)[C@H](CCC(N)=O)NC(=O)C(C)(C)NC(=O)[C@@H](N)Cc1c[nH]cn1)[C@@H](C)O)[C@@H](C)O)C(C)C)C(=O)N[C@@H](CCC(=O)O)C(=O)NCC(=O)NCC(=O)N1CCC[C@H]1C(=O)N[C@@H](CO)C(=O)N[C@@H](CO)C(=O)NCC(N)=O [IBI362]
[1]; 4.5 mg group, 10 events
  median time to resolution of gastrointestinal adverse events (diarrhoea, nausea and vomiting): 3.5 days
[1]; 6.0 mg group, 11 events
  median time to resolution of gastrointestinal adverse events (diarrhoea, nausea and vomiting): 4 days
[1]; 3.0, 4.5 and 6.0 mg dose-escalation regimens
  tolerability: well tolerated
[2]; week 4, 3.0 mg cohort
  Change from baseline in ALT, mean: 3.76 U/L
  Change from baseline in AST, mean: 1.13 U/L
[2]; week 4, 4.5 mg cohort
  Change from baseline in ALT, mean: -3.50 U/L
  Change from baseline in AST, mean: -2.03 U/L
[2]; week 4, 6.0 mg cohort
  Change from baseline in ALT, mean: -7.38 U/L
  Change from baseline in AST, mean: -2.56 U/L
[2]; week 8, 3.0 mg cohort
  Change from baseline in ALT, mean: -6.34 U/L
  Change from baseline in AST, mean: -1.20 U/L
[2]; week 8, 4.5 mg cohort
  Change from baseline in ALT, mean: -7.66 U/L
  Change from baseline in AST, mean: -1.26 U/L
[2]; week 8, 6.0 mg cohort
  Change from baseline in ALT, mean: -8.50 U/L
  Change from baseline in AST, mean: -3.36 U/L
[2]; week 12, 3.0 mg cohort
  Change from baseline in ALT, mean: -6.34 U/L
  Change from baseline in AST, mean: -2.49 U/L
[2]; week 12, 4.5 mg cohort
  Change from baseline in ALT, mean: -10.66 U/L
  Change from baseline in AST, mean: -2.82 U/L
[2]; week 12, 6.0 mg cohort
  Change from baseline in ALT, mean: -8.38 U/L
  Change from baseline in AST, mean: -4.65 U/L
[3]; week 12, 0 min, 3.0 mg cohort, n=7
  C peptide during MTT, mean: 2.67 ng/mL
[3]; week 12, 0 min, 4.5 mg cohort, n=5
  C peptide during MTT, mean: 2.81 ng/mL
[3]; week 12, 0 min, 6.0 mg cohort, n=8
  C peptide during MTT, mean: 2.79 ng/mL
[3]; week 12, 30 min, 3.0 mg cohort, n=7
  C peptide during MTT, mean: 3.41 ng/mL
[3]; week 12, 30 min, 4.5 mg cohort, n=5
  C peptide during MTT, mean: 3.46 ng/mL
[3]; week 12, 30 min, 6.0 mg cohort, n=8
  C peptide during MTT, mean: 3.54 ng/mL
[3]; week 12, 60 min, 3.0 mg cohort, n=7
  C peptide during MTT, mean: 5.15 ng/mL
[3]; week 12, 60 min, 4.5 mg cohort, n=5
  C peptide during MTT, mean: 4.85 ng/mL
[3]; week 12, 60 min, 6.0 mg cohort, n=8
  C peptide during MTT, mean: 5.24 ng/mL
[3]; week 12, 120 min, 3.0 mg cohort, n=7
  C peptide during MTT, mean: 8.22 ng/mL
[3]; week 12, 120 min, 4.5 mg cohort, n=5
  C peptide during MTT, mean: 6.34 ng/mL
[3]; week 12, 120 min, 6.0 mg cohort, n=8
  C peptide during MTT, mean: 8.25 ng/mL
[3]; week 12, 180 min, 3.0 mg cohort, n=7
  C peptide during MTT, mean: 7.74 ng/mL
[3]; week 12, 180 min, 4.5 mg cohort, n=5
  C peptide during MTT, mean: 7.22 ng/mL
[3]; week 12, 180 min, 6.0 mg cohort, n=8
  C peptide during MTT, mean: 7.50 ng/mL
[3]; week 12, 240 min, 3.0 mg cohort, n=7
  C peptide during MTT, mean: 5.91 ng/mL
[3]; week 12, 240 min, 4.5 mg cohort, n=5
  C peptide during MTT, mean: 5.24 ng/mL
[3]; week 12, 240 min, 6.0 mg cohort, n=8
  C peptide during MTT, mean: 5.41 ng/mL
Waist circumference; 3.0 mg cohort, n=7
  Change from baseline to week 12 in waist circumference, mean: -0.5 cm
  Change from baseline to week 12 in waist circumference, individual: -4.4 cm and -0.2 cm and -4.0 cm and -1.0 cm and 3.7 cm and 3.5 cm
Waist circumference; 4.5 mg cohort, n=5
  Change from baseline to week 12 in waist circumference, mean: -3.0 cm
  Change from baseline to week 12 in waist circumference, individual: -4.5 cm and -1.8 cm and -2.1 cm and -2.2 cm and -4.2 cm
Waist circumference; 6.0 mg cohort, n=8
  Change from baseline to week 12 in waist circumference, individual: -4.7 cm and -2.5 cm and -1.0 cm and -7.5 cm and -5.1 cm and -13.3 cm and -1.5 cm and -2.9 cm
[4]; 3.0 mg cohort, n=7
  Change from baseline to week 12 in HOMA-IR, mean: -2.1
  Change from baseline to week 12 in HOMA-IR, individual: -4.8 and -1.3 and -2.3 and -1.2 and -2.4
[4]; 4.5 mg cohort, n=5
  Change from baseline to week 12 in HOMA-IR, mean: -1.5
  Change from baseline to week 12 in HOMA-IR, individual: -2.8 and -5.0 and -1.9 and 2.5 and -0.5
[4]; 6.0 mg cohort, n=8
  Change from baseline to week 12 in HOMA-IR, mean: -5.4
  Change from baseline to week 12 in HOMA-IR, individual: -1.9 and -5.3 and -0.4 and -4.2 and -1.1 and -1.0 and -22.2 and -7.0

## Dulaglutide: open-label active reference, subcutaneously once weekly at a fixed dose of 1.5 mg [reference compound]
[1]; 1.5 mg once weekly, n=6
  Infections and infestations (SOC): 0 number of patients (%)
  Upper respiratory tract infection: 0 number of patients (%)
  Urinary tract infection: 0 number of patients (%)
[2]; week 4, 1.5 mg once weekly
  Change from baseline in ALT, mean: -3.70 U/L
  Change from baseline in AST, mean: 0.83 U/L
[2]; week 8, 1.5 mg once weekly
  Change from baseline in ALT, mean: -4.33 U/L
  Change from baseline in AST, mean: 1.53 U/L
[2]; week 12, 1.5 mg once weekly
  Change from baseline in ALT, mean: -6.92 U/L
  Change from baseline in AST, mean: 1.58 U/L
[3]; week 12, 0 min, 1.5 mg once weekly, n=6
  C peptide during MTT, mean: 3.04 ng/mL
[3]; week 12, 30 min, 1.5 mg once weekly, n=6
  C peptide during MTT, mean: 4.18 ng/mL
[3]; week 12, 60 min, 1.5 mg once weekly, n=6
  C peptide during MTT, mean: 6.16 ng/mL
[3]; week 12, 120 min, 1.5 mg once weekly, n=6
  C peptide during MTT, mean: 8.34 ng/mL
[3]; week 12, 180 min, 1.5 mg once weekly, n=6
  C peptide during MTT, mean: 5.85 ng/mL
[3]; week 12, 240 min, 1.5 mg once weekly, n=6
  C peptide during MTT, mean: 4.53 ng/mL
Waist circumference; 1.5 mg once weekly, n=6
  Change from baseline to week 12 in waist circumference, mean: -1.4 cm
  Change from baseline to week 12 in waist circumference, individual: -0.5 cm and -1.5 cm and -2.6 cm and -4.9 cm and 1.5 cm
[4]; 1.5 mg once weekly, n=6
  Change from baseline to week 12 in HOMA-IR, mean: -1.5
  Change from baseline to week 12 in HOMA-IR, individual: 0.346 and 1.1 and -0.8 and -3.0 and -3.5
